Source: patent US12653788B2, “Pharmaceutical composition of a pyrazole compound dispersed in a polymer matrix” (Intervet Inc., priority 2019, dated 2026)

Columns and labels:
[1] = Oral bioavailability of the compound in dogs; conditions: dog, in vivo
Protocol: (§1) The poor water solubility results in poor oral bioavailability in dogs, often below 50%. The log P of the compound of Formula (I) is calculated to be 1.25 (Chem Draw and Insight for Excel). To increase solubilization and promote bioavailability, Applicants have dosed the compound in the amorphous state as part of an amorphous solid dispersion (ASD). […] Therefore, the ASD was manufactured by co-precipitation or cPAD (co-precipitated amorphous dispersion). In this process, the compound and a polymer were dissolved into a solvent. The compound-polymer solution was then rapidly precipitated in an anti-solvent under high shear in a rotor-stator homogenizer. and the compound-polymer amorphous solid dispersion was formed.

[2] = In vitro anti-nucleating polymer screen in simulated gastric fluid (PION UV probe); assay type: physicochemical; conditions: only simulated gastric fluid (SGF) pH 1.8, no polymer; 2 hours, 272 nm
Protocol: FIG. 3—Several anti-nucleating polymers were assessed for ability to maintain the compound of Formula (I) in an in vitro screen.
In an attempt to improve the bioavailability of the compound of Formula (I) in animals administered in the fed state, anti-nucleating agents were added to the pharmaceutical composition to decrease the potential for crystallization of the compound. Several anti-nucleation polymers were assessed for ability to maintain the compound of Formula (I) in an in vitro screen. 0.5% solution of each anti-nucleating polymer was prepared in simulated gastric fluid, pH 1.8. 75 uL of 10 mg/mL API in DMSO was added into 5 mL of the 0.5% polymer solution and monitored by PION UV probe for 2 hours at 272 nm. […] When the other polymers were used, the concentration of the compound of Formula (I) was initially maintained but finally was reduced before the 2 hour test was completed.

[3] = system: cIL-31 induced pruritus; conditions: with respect to placebo, similar magnitude to oclacitinib (Apoquel); cited from earlier work
[4] = Solubility of the compound (water, volatile solvents); assay type: physicochemical
Protocol: as §1

COc1cc(Nc2nn([C@H]3COCC[C@@H]3C#N)cc2C(N)=O)cc(F)n1 [compound of Formula (I), 1-[(3R,4S)-4-cyanotetrahydropyran-3-yl]-3-[(2-fluoro-6-methoxy-4-pyridyl)amino]pyrazole-4-carboxamide]
bioavailability [1]: < 50% | concentration of the compound of Formula (I) in control [2]: dropped almost immediately | suppression of pruritus [3]: significantly suppressed pruritus | solubility in volatile solvents ([4]; isopropanol, acetone, dichloromethane): low solubility | water solubility ([4]; water): poorly water soluble
